The values below come from US20250353864A1, “INDAZOLE CONTAINING MACROCYCLES AND THEIR USE” (BLOSSOMHILL THERAPEUTICS, INC., priority 2022, published 2025).

As a reminder, the IC50 is the point on the concentration scale where inhibition reaches its midpoint.

Common to all, as to assay type: biochemical
In experiment [1] the target is EGFR L858R/T790M/C797S mutant (Homo sapiens (Human), UniProt P00533, C797S/L858R/T790M). As to the kind of experiment: HotSpot radiometric kinase assay, EGFR L858R/T790M/C797S mutant. As to conditions: 10 μM ATP. Put shortly:
(§1)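 Kinase, substrate and cofactors are mixed in 20 mM Hepes pH 7.5 with 10 mM MgCl2, 1 mM EGTA, 2 mM DTT and 1% DMSO. Compound is added, and about 20 min later ATP/33P-ATP (10 μM final) starts a 120-min room-temperature reaction, which is then spotted onto P81 paper.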

For another experiment, the target named is EGFR WT (Homo sapiens (Human), UniProt P00533). As to the kind of experiment: HotSpot radiometric kinase assay (Reaction Biology), EGFR WT. The settings on record: 10 μM ATP. In a few lines: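 Enzyme and substrate pairs were exposed to inhibitor for roughly 20 min before radiolabelled ATP (10 μM final) was introduced; the reaction proceeded 120 min at ambient temperature in pH 7.5 buffer with 1% DMSO, and phosphorylated product was captured on P81 filters for IC50 determination.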

The target in experiment [2] is EGFR Δ746-750/C797S mutant (Homo sapiens (Human), UniProt P00533, C797S/DEL746-750). As to the kind of experiment: HotSpot radiometric kinase assay, EGFR Δ746-750/C797S mutant. The settings on record: 10 μM ATP. In a few lines: as §1
A further experiment deals with EGFR Δ746-750 mutant (Homo sapiens (Human), UniProt P00533, DEL746-750). Description: HotSpot radiometric kinase assay, EGFR Δ746-750 mutant. The settings on record: 10 μM ATP. Put shortly:
as §1

The next experiment has as its target EGFR L858R/T790M mutant (Homo sapiens (Human), UniProt P00533, L858R/T790M). As to the kind of experiment: HotSpot radiometric kinase assay, EGFR L858R/T790M mutant. As to conditions: 10 μM ATP. Put shortly:
as §1

In the next experiment the target is EGFR L858R mutant (Homo sapiens (Human), UniProt P00533, L858R). As to the kind of experiment: HotSpot radiometric kinase assay, EGFR L858R mutant. The settings on record: 10 μM ATP. Put shortly:
as §1

For a further experiment, the target named is EGFR (D770_N771insNPG) (Homo sapiens (Human), UniProt P00533, INS770NPG). As to the kind of experiment: HotSpot radiometric kinase assay, EGFR (D770_N771insNPG). The settings on record: 10 μM ATP, read-out: EGFR (Δ770_N771insNPG) IC50. Put shortly: as §1

A value given as a limit tells only on which side of the number the result lay.

EGFR L858R mutant, sequence (P00533 25-1210 L858R): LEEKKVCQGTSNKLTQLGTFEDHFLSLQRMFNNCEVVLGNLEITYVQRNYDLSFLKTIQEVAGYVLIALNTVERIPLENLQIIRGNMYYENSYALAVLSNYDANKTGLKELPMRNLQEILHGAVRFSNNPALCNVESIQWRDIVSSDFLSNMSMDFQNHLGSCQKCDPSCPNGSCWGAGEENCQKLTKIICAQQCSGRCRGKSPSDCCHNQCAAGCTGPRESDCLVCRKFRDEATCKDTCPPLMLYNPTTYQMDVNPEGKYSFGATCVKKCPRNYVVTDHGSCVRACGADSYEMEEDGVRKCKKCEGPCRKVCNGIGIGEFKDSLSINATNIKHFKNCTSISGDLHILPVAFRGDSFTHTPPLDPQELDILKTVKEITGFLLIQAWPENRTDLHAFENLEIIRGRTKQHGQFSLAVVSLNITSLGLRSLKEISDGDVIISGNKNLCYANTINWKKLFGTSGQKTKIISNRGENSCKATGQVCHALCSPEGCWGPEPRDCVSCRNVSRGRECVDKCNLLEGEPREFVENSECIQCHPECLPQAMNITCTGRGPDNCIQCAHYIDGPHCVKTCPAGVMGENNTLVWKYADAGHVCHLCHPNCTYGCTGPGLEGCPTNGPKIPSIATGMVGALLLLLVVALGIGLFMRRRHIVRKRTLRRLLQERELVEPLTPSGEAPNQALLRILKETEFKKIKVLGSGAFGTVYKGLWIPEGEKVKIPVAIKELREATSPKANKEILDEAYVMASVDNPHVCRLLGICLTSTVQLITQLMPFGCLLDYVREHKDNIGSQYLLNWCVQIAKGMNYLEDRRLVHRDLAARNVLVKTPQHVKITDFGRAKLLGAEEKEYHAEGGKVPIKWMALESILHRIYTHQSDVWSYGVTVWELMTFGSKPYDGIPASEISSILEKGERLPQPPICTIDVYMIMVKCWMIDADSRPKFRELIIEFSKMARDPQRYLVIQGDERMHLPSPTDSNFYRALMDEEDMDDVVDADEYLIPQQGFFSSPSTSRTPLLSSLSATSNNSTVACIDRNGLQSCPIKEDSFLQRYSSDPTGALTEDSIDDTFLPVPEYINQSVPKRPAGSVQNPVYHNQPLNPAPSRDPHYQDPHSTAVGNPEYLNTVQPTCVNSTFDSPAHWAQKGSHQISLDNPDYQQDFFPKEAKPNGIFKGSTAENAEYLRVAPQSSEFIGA
EGFR Δ746-750 mutant, sequence (P00533 other isoform, or with tags, fused parts or gaps del 1-668/del 746-750 limits assumed): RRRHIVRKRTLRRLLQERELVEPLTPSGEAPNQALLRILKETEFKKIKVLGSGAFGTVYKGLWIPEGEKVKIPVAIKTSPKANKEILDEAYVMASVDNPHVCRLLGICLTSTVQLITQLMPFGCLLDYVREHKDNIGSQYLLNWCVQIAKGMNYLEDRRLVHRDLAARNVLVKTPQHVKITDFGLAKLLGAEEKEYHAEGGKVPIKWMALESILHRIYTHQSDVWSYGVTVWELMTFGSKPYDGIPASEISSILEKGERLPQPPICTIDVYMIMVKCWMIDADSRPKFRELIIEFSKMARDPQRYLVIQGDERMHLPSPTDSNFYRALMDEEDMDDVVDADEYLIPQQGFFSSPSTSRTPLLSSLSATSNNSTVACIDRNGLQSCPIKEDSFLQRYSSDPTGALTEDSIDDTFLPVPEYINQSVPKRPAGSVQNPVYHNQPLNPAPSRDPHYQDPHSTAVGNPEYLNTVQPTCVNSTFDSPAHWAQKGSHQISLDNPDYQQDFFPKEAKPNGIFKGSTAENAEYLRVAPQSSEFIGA
EGFR WT, sequence (P00533 25-1210): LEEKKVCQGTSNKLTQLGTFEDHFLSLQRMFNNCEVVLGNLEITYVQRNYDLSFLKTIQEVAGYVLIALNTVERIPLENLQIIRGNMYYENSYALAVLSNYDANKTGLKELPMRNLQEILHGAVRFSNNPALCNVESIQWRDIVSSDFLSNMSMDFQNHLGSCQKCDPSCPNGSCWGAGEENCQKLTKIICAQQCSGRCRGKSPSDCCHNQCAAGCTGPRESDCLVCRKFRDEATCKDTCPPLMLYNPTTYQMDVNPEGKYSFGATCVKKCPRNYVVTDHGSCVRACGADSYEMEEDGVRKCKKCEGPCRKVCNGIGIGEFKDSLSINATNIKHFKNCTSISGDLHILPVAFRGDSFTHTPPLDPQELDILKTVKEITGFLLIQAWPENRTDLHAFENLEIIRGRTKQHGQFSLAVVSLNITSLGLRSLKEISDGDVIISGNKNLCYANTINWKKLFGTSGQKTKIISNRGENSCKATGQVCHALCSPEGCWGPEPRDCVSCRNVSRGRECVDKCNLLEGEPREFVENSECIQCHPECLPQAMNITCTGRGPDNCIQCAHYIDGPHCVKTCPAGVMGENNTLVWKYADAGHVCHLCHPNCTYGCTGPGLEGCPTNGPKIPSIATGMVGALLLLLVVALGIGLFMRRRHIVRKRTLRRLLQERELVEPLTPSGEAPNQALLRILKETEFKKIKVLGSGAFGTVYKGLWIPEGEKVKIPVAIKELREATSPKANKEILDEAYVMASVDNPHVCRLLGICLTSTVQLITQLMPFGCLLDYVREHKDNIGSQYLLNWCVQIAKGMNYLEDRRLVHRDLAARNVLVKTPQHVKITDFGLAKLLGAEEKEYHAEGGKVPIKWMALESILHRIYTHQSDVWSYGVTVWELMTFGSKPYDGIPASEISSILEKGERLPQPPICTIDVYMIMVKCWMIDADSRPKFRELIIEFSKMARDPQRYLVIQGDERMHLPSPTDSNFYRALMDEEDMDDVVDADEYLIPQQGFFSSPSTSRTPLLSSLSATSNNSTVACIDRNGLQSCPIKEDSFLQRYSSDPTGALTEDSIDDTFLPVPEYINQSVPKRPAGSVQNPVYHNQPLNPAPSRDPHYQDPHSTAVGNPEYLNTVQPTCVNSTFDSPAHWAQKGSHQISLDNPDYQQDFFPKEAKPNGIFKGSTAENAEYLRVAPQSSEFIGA
EGFR Δ746-750/C797S mutant, sequence (P00533 other isoform, or with tags, fused parts or gaps C797S/del 1-668/del 746-750 limits assumed): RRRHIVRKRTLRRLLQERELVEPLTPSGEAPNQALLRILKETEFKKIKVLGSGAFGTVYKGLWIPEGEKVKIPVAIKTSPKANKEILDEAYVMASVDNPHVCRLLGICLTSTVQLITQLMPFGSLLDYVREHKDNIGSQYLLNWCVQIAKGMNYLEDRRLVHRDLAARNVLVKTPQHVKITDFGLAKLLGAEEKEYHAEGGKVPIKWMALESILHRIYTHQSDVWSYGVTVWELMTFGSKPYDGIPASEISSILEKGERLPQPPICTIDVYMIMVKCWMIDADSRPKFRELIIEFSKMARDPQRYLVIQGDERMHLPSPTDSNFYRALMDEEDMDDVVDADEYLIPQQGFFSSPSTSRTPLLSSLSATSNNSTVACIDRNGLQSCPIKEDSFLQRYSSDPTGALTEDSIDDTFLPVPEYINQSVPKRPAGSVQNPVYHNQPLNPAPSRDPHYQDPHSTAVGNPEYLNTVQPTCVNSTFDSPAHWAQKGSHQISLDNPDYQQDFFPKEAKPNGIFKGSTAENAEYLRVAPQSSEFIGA
EGFR L858R/T790M/C797S mutant, sequence (P00533 25-1210 T790M/C797S/L858R): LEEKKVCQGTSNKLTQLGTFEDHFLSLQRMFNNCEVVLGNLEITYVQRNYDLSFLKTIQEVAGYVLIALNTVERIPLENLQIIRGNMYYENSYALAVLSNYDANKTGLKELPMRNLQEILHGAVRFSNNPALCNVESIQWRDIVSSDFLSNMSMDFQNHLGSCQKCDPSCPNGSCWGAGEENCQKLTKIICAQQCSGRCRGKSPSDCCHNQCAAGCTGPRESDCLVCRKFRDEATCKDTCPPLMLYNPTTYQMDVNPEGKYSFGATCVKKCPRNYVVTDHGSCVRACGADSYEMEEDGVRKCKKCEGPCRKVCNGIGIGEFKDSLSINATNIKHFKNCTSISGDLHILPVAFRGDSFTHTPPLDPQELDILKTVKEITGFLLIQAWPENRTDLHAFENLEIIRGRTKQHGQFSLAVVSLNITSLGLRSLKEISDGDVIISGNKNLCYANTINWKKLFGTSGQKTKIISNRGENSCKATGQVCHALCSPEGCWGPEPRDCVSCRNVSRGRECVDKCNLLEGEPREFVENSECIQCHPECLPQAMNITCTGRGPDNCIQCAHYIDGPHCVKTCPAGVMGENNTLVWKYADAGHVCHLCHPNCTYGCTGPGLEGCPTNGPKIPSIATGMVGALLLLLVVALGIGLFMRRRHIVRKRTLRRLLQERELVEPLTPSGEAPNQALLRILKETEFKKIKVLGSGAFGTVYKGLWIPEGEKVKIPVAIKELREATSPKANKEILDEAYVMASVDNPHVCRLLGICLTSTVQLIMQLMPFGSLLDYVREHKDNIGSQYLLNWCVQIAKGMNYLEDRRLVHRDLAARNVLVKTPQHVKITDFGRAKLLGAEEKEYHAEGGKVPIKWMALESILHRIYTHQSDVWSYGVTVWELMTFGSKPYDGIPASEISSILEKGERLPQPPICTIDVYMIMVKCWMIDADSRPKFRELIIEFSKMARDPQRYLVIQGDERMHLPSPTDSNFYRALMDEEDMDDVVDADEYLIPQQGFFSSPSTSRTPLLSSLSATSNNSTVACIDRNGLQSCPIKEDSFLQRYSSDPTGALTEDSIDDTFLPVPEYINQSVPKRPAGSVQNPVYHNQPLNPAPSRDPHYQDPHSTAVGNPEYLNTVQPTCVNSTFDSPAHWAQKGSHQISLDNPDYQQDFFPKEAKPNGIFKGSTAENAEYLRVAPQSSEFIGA

Regarding `C[C@H]1CN(C)Cc2c(c(O)nn2C)/C=C/c2n[nH]c3ccc(cc23)-c2cnn(C)c2O1` [Example 148, (10S,17E)-8,10,12,14-tetramethyl-2,10,11,12,13,14-hexahydro-8H-3,5-ethenotripyrazolo[3,4-f:3′,4′-j:4″,3″-n][1,4]oxazacyclopentadecin-16-ol], the IC50 is 2.77 nM in experiment [1]; 372 nM at EGFR WT; 23.6 nM in experiment [2]; 35 nM against EGFR Δ746-750 mutant; 4.25 nM against EGFR L858R/T790M mutant; 42.4 nM against EGFR L858R mutant. For the same compound, the half-maximal inhibitory concentration (IC50) at EGFR (D770_N771insNPG) amounted to 403 nM.

For `Cc1c2c(nn1[C@H]1CCNC[C@@H]1O)OCCCOc1c(cnn1C)-c1ccc3[nH]nc(c3c1)/C=C/2` (racemic) [Example 81, (rac)-4-[(17E)-8,16-dimethyl-2,8,11,12-tetrahydro-10H,15H-3,5-etheno[1,5]dioxacyclopentadecino[10,11-c:15,14-c′:6,7-c″ ]tripyrazol-15-yl]piperidin-3-ol], the IC50 was 7.42 nM in experiment [1]; 43.8 nM on EGFR WT; 33.4 nM in experiment [2]; 29.6 nM against EGFR Δ746-750 mutant; 1.7 nM against EGFR L858R/T790M mutant; 16.8 nM against EGFR L858R mutant. The IC50 at EGFR (D770_N771insNPG) is 40.3 nM.

In the case of `Cc1nn(CCO)c2c1/C=C/c1n[nH]c3ccc(cc13)-c1cnn(C)c1CN(C)CCO2` [Example 56, 2-[(17E)-8,10,16-trimethyl-2,8,9,10,11,12-hexahydro-14H-3,5-ethenotripyrazolo[3,4-f:4′,3′-j:4″,3″- n][1,4]oxazacyclopentadecin-14-yl]ethan-1-ol], the half-inhibitory concentration (IC50) was 1.12 nM in experiment [1]; 42.7 nM at EGFR WT; 8.48 nM in experiment [2]; 15 nM against EGFR Δ746-750 mutant; 1.22 nM at EGFR L858R/T790M mutant; 22.2 nM at EGFR L858R mutant. In addition, the IC50 on EGFR (D770_N771insNPG) was 50 nM.

As for `CN1CCN(Cc2ccc3c(c2)O[C@@H]2CCN(CCOc4c(cnn4C)-c4ccc5[nH]nc(c5c4)/C=C/3)C2=O)CC1` [Example 92, (10R,16E)-3-methyl-13-[(4-methylpiperazin-1-yl)methyl]-3,5,6,9,10,19-hexahydro-8H-20,22-etheno-7,10-methanodipyrazolo[3,4-i:4′,3′-m][1,8,5]benzodioxazacyclooctadecin-25-one], the IC50 in experiment [1] is 3.26 nM; against EGFR WT it was 14.5 nM; in experiment [2], 6.65 nM; at EGFR Δ746-750 mutant it was 7.95 nM; on EGFR L858R/T790M mutant it was 0.41 nM; against EGFR L858R mutant, 4.1 nM. Further, the IC50 at EGFR (D770_N771insNPG) was found to be 6.34 nM.

As to `Cn1ncc2c1OCCN1CC[C@@H](Oc3ccc(C(C)(C)O)cc3/C=C/c3n[nH]c4ccc-2cc34)C1=O` [Example 135, (10R,16E)-14-(2-hydroxypropan-2-yl)-3-methyl-3,5,6,9,10,19-hexahydro-8H-20,22-etheno-7,10-methanodipyrazolo[3,4-i:4′,3′-m][1,8,5]benzodioxazacyclooctadecin-25-one], the IC50 was 38.6 nM in experiment [1]; 829 nM at EGFR WT; 97.7 nM in experiment [2]; 48.3 nM on EGFR Δ746-750 mutant; 20 nM against EGFR L858R/T790M mutant; 128 nM against EGFR L858R mutant. Also, the IC50 on EGFR (D770_N771insNPG) came to 802 nM.

Turning to `Cc1nn([C@H]2CN(C)C[C@@H]2O)c2c1/C=C/c1n[nH]c3ccc(cc13)-c1cnn(C)c1CN(C)CCO2` (racemic) [Example 98, (rac)-(3S,4S)-1-methyl-4-[(17E)-8,10,16-trimethyl-2,8,9,10,11,12-hexahydro-14H-3,5-ethenotripyrazolo[3,4-f:4′,3′-j:4″,3″-n][1,4]oxazacyclopentadecin-14-yl]pyrrolidin-3-ol], the IC50 is 12.1 nM in experiment [1]; 119 nM at EGFR WT; 27 nM in experiment [2]; 84.9 nM at EGFR Δ746-750 mutant; 3.56 nM at EGFR L858R/T790M mutant; 41.1 nM at EGFR L858R mutant. For the same compound, the IC50 on EGFR (D770_N771insNPG) worked out at 148 nM.

Turning to `CCOc1nn(CCO)c2c1/C=C/c1n[nH]c3ccc(cc13)-c1cnn(C)c1O[C@H]1CN(C)C[C@@H]1N(C)C2` (single isomer, unassigned) [Ex. 270], the IC50 was 1.1 nM in experiment [1]; 543 nM on EGFR WT; 20.5 nM in experiment [2]; 93.6 nM on EGFR Δ746-750 mutant; 4.58 nM against EGFR L858R/T790M mutant; 161 nM at EGFR L858R mutant. For the same compound, on EGFR (D770_N771insNPG), the IC50 came to 635 nM.

Consider `Cc1nn(C)c2c1/C=C/c1n[nH]c3ccc(cc13)-c1cnn(C)c1O[C@@H](C)CN(C1COC1)C2` [Example 140, (10S,17E)-8,10,14,16-tetramethyl-12-(oxetan-3-yl)-2,10,11,12,13,14-hexahydro-8H-3,5-ethenotripyrazolo[3,4-f:3′,4′-j:4″,3″-n][1,4]oxazacyclopentadecine], for which the IC50 in experiment [1] came to 1.3 nM; against EGFR WT it was 84.8 nM; in experiment [2], 6.14 nM; against EGFR Δ746-750 mutant it was 9.35 nM; at EGFR L858R/T790M mutant, 1.19 nM; at EGFR L858R mutant it was 11.6 nM. In addition, the half-maximal inhibitory concentration (IC50) on EGFR (D770_N771insNPG) was determined as 186 nM.

For `Cc1nn([C@@H]2COC[C@H]2O)c2c1/C=C/c1n[nH]c3ccc(cc13)-c1cnn(C)c1OCCCO2` (single isomer, unassigned) [Example 77], the half-inhibitory concentration (IC50) in experiment [1] was 453 nM; at EGFR WT, greater than 1000 nM; in experiment [2] it was 803 nM; on EGFR Δ746-750 mutant, 749 nM; against EGFR L858R/T790M mutant, 427 nM; against EGFR L858R mutant, 2080 nM. Moreover, at EGFR (D770_N771insNPG), the IC50 was found to be 1880 nM.

As to `Cc1c2c(nn1C1CCN(C)C1)OCCN(C)Cc1c(cnn1C)-c1ccc3[nH]nc(c3c1)/C=C/2` (centres unmarked) [Example 117, (17E)-8,10,16-trimethyl-14-(1-methylpyrrolidin-3-yl)-2,9,10,11,12,14-hexahydro-8H-3,5-ethenotripyrazolo[3,4-f:4′,3′-j:4″,3″-n][1,4]oxazacyclopentadecine], the IC50 in experiment [1] worked out at 6.18 nM; against EGFR WT, 70.1 nM; in experiment [2] it was 8.36 nM; on EGFR Δ746-750 mutant, 6.91 nM; on EGFR L858R/T790M mutant, 2.2 nM; on EGFR L858R mutant, 20 nM. In addition, at EGFR (D770_N771insNPG), the IC50 is 53.5 nM.

`Cc1c2c(nn1C[C@@H](C)O)CN(C)C[C@H](C)Oc1c(cnn1C)-c1ccc3[nH]nc(c3c1)/C=C/2` [Example 128, (2R)-1-[(10S,17E)-8,10,12,16-tetramethyl-2,8,10,11,12,13-hexahydro-15H-3,5-ethenotripyrazolo[3,4-f:3′,4′-j:4″,3″-n][1,4]oxazacyclopentadecin-15-yl]propan-2-ol]: the concentration for half-maximal inhibition (IC50) in experiment [1] came to 1.01 nM; at EGFR WT it was 264 nM; in experiment [2] it was 15.2 nM; at EGFR Δ746-750 mutant, 33.7 nM; on EGFR L858R/T790M mutant it was 0.77 nM; at EGFR L858R mutant it was 21.9 nM. In addition, the IC50 on EGFR (D770_N771insNPG) came to 383 nM.

Take `COC(C)(C)c1ccc2c(c1)O[C@@H]1CCN(CCOc3c(cnn3C)-c3ccc4[nH]nc(c4c3)/C=C/2)C1=O` [Example 115, (10R,16E)-13-(2-methoxypropan-2-yl)-3-methyl-3,5,6,9,10,19-hexahydro-8H-20,22-etheno-7,10-methanodipyrazolo[3,4-i:4′,3′-m][1,8,5]benzodioxazacyclooctadecin-25-one]: the IC50 is 14 nM in experiment [1]; 147 nM against EGFR WT; 60.1 nM in experiment [2]; 12.9 nM against EGFR Δ746-750 mutant; 1.6 nM against EGFR L858R/T790M mutant; 37.3 nM on EGFR L858R mutant. For the same compound, the IC50 on EGFR (D770_N771insNPG) was determined as 32.3 nM.

Regarding `Cc1nn(C[C@@H](C)O)c2c1/C=C/c1n[nH]c3ccc(cc13)-c1cnn(C)c1O[C@@H](C)CN(C)C2` [Example 127, (2R)-1-[(10S,17E)-8,10,12,16-tetramethyl-2,8,10,11,12,13-hexahydro-14H-3,5-ethenotripyrazolo[3,4-f:3′,4′-j:4″,3″-n][1,4]oxazacyclopentadecin-14-yl]propan-2-ol], the 50% inhibitory concentration (IC50) came out at 0.43 nM in experiment [1]; 11.1 nM on EGFR WT; 0.85 nM in experiment [2]; 2.82 nM at EGFR Δ746-750 mutant; 0.15 nM against EGFR L858R/T790M mutant; 1.81 nM on EGFR L858R mutant. Further, the IC50 at EGFR (D770_N771insNPG) stood at 25.6 nM.

Turning to `Cc1c2c(nn1[C@H]1CCOC[C@@H]1O)OCCCOc1c(cnn1C)-c1ccc3[nH]nc(c3c1)/C=C/2` (racemic) [Example 87, (rac)-1,5-anhydro-2,3-dideoxy-3-[(17E)-8,16-dimethyl-2,8,11,12-tetrahydro-10H,15H-3,5-etheno[1,5]dioxacyclopentadecino[10,11-c:15,14-c′:6,7-c″ ]tripyrazol-15-yl]-L-threo-pentitol], the IC50 (in experiment [1]; on EGFR WT; in experiment [2]; on EGFR Δ746-750 mutant; against EGFR L858R/T790M mutant; at EGFR L858R mutant) was greater than 1000 nM throughout. In addition, the 50% inhibitory concentration (IC50) on EGFR (D770_N771insNPG) was greater than 1000 nM.
